This passage reports MIC, selectivity ratio and CC50 results from ChEMBL document CHEMBL4052775, “Design, synthesis and in vitro anti-mycobacterial evaluation of gatifloxacin-1H-1,2,3-triazole-isatin hybrids” (Bioorg Med Chem Lett, 2017).

Data set [1] concerns Mycobacterium tuberculosis. Kind of data set: Antimycobacterial activity against Mycobacterium tuberculosis H37Rv ATCC 27294 by two fold dilution method. It is filed as functional.
Data set [2] can be described thus: Selectivity index, ratio of CC50 for African green monkey Vero cells to MIC for Mycobacterium tuberculosis H37Rv ATCC 27294. Format: toxicity. To be noted: read-out: Selectivity Index.
Data set [3] in a line: Cytotoxicity against African green monkey Vero cells assessed as reduction in cell viability after 72 hrs by MTT assay. It is filed as cell-based. The following applies: chlorocebus sabaeus. (Formazan colour is commonly taken as a measure of viable cells.)

The structures appear in SMILES notation. Converted amounts (≈) assume the structure as drawn.

As a reminder, the MIC is the least concentration at which growth counts as inhibited. By CC50 is commonly meant the concentration giving 50% cytotoxicity. Molecule `COc1c(N2CCNC(C)C2)c(F)cc2c(=O)c(C(=O)O)cn(C3CC3)c12` (configuration not stated) [GATIFLOXACIN] returned an MIC in data set [1] of 0.78 µg/mL (≈ 2.08 µM). Further, the selectivity ratio in data set [2] worked out at 160. Also, the CC50 at 72 h in data set [3] stood at 125 µg/mL (≈ 333 µM).
Regarding `NNC(=O)c1ccncc1` [ISONIAZID], the MIC in data set [1] is 0.05 µg/mL (≈ 0.365 µM). In addition, the CC50 at 72 h in data set [3] was determined as 125 µg/mL (≈ 911 µM).
For `CO[C@H]1/C=C/O[C@@]2(C)Oc3c(C)c(O)c4c(O)c(c(/C=N/N5CCN(C)CC5)c(O)c4c3C2=O)NC(=O)/C(C)=C\C=C\[C@H](C)[C@H](O)[C@@H](C)[C@@H](O)[C@@H](C)[C@H](OC(C)=O)[C@@H]1C` [RIFAMPIN] the same measures were 0.39 µg/mL (≈ 0.474 µM) and 500 µg/mL (≈ 608 µM).
